Test results: patent US7960387B2, “2-(3-phenyl-2-piperazinyl-3,4-dihydroquinazolin-4-yl)acetic acids as antiviral agents, especially against cytomegaloviruses” (Bayer Schering Pharma Aktiengesellschaft, priority 2003, dated 2011)
Where a name gives a salt, the structure may show the parent alone. Read-outs that look alike come from different tables or passages of the source.

Legend:
[1] = Anti-HCMV cytopathogenicity test: cytostatic effects on NHDF cells; type: cell-based; conditions: NHDF cells (human prepuce fibroblasts), 6 days incubation, visual assessment, concentration at which no visible cytostatic effects are evident vs untreated cell control
Procedure: (§1) Anti-HCMV (Anti-Human Cytomegalovirus) Cytopathogenicity Tests The test compounds are employed as 50 millimolar (mM) solutions in dimethyl sulphoxide (DMSO). Ganciclovir®, Foscarnet® and Cidofovir® are used as reference compounds. After addition of in each case 2 μl of the 50, 5, 0.5 and 0.05 mM DMSO stock solutions to 98 μl portions of cell culture medium in row […] for duplicate determinations, 1:2 dilutions are carried out with 50 μl portions of medium up to row 11 of the 96-well plate. The wells in rows 1 and 12 each contain 50 μl of medium. In 150 μl of a suspension of 1×10^4 cells (human prepuce fibroblasts [NHDF]) are pipetted into each of the wells (row 1=cell control) and, in rows 2-12, a mixture of HCMV-infected and uninfected NHDF cells (M.O.I.=0.001-0.002), i.e. 1-2 infected cells per 1000 uninfected cells. Row 12 (without substance) serves as virus control. The final test concentrations are 250-0.0005 μM. The plates are incubated at 37° C./5% CO2 for 6 days, i.e. until all the cells are infected in the virus controls (100% cytopathogenic effect [CPE]). The wells are then fixed and stained by adding a mixture of formalin and Giemsa's dye (30 minutes), washed with double-distilled water and dried in a drying oven at 50° C. The plates are then assessed visually using an overhead microscope (Plaque Multiplier from Technomara). The following data can be acquired from the test plates: • CC50 (NHDF)=substance concentration in μM at which no visible cytostatic effects on the cells are evident by comparison with the untreated cell control; • EC50 (HCMV)=substance concentration in μM which inhibits the CPE (cytopathic effect) by 50% compared with the untreated virus control; • SI (selectivity index)=CC50 (NHDF)/EC50 (HCMV).

HCMV = assay: Anti-HCMV cytopathogenicity test; type: cell-based, human cytomegalovirus; conditions: read-out: HCMV EC50
Procedure: as §1

[2] = Human betaherpesvirus 5, 144 h, HCMV-infected NHDF cells, M.O.I. 0.001-0.002, 6 days, 50% inhibition of CPE vs untreated virus control

Row | SMILES | CC50 at 6 days [1] | EC50 (HCMV; [2]) | EC50 (HCMV; Human betaherpesvirus 5, NHDF, 144 h)
1 | O=C(O)CC1c2ccccc2N=C(N2CCN(c3cccc(Cl)c3)CC2)N1c1ccc(F)c(Cl)c1 (stereo not shown) [Example 19] | 24 µM | 0.4 µM | 
2 | COc1cccc(N2CCN(C3=Nc4ccccc4C(CC(=O)O)N3c3cc(Cl)ccc3OC)CC2)c1 (stereo not shown) [Example 28, {2-[4-(3-Methoxyphenyl)-1-piperazinyl]-3-[2-methoxy-5-chlorophenyl]-3,4-dihydro-4-quinazolinyl]acetic acid] | 63 µM | 0.025 µM | 
3 | COc1ccc(Cl)cc1N1C(N2CCN(c3ccc(F)cc3)CC2)=Nc2ccccc2C1CC(=O)O (stereo not shown) [Example 29, {2-[4-(4-Fluorophenyl)-1-piperazinyl]-3-[2-methoxy-5-chlorophenyl]-3,4-dihydro-4-quinazolinyl}acetic acid] | 125 µM | 0.07 µM | 
4 | Cc1cc(Cl)ccc1N1C(N2CCN(c3cccc(Cl)c3)CC2)=Nc2ccccc2C1CC(=O)O (stereo not shown) [Example 6, {2-[4-(3-Chlorophenyl)-1-piperazinyl]-3-[4-chloro-2-methylphenyl]-3,4-dihydro-4-quinazolinyl}acetic acid] | 22 µM | 0.4 µM | 
5 | O=C(O)CC1c2ccccc2N=C(N2CCN(c3ccc(F)cc3)CC2)N1c1cc(C(F)(F)F)ccc1F (stereo not shown) [Example 2, {2-[4-(4-Fluorophenyl)-1-piperazinyl]-3-[2-fluoro-5-(trifluoromethyl)phenyl]-3,4-dihydro-4-quinazolinyl}acetic acid hydrochloride] | 39 µM |  | 0.06 µM
6 | COc1ccc(C)cc1N1C(N2CCN(c3cccc(Cl)c3)CC2)=Nc2ccccc2C1CC(=O)O (stereo not shown) [Example 31, {2-[4-(3-Chlorophenyl)-1-piperazinyl]-3-[2-methoxy-5-methylphenyl]-3,4-dihydro-4-quinazolinyl}acetic acid] | 63 µM | 0.14 µM | 
7 | COc1ccc(C)cc1N1C(N2CCN(c3cccc(C)c3)CC2)=Nc2ccccc2C1CC(=O)O (stereo not shown) [Example 30, {2-[4-(3-Methylpheny)-1-piperazinyl]-3-[2-methoxy-5-methylphenyl]-3,4-dihydro-4-quinazolinyl}acetic acid] | 250 µM | 0.25 µM | 
8 | COc1cccc(N2CCN(C3=Nc4ccccc4C(CC(=O)O)N3c3cccc(C#N)c3)CC2)c1 (stereo not shown) [Example 23] | 188 µM | 0.76 µM | 
9 | COc1ccc(C(F)(F)F)cc1N1C(N2CCN(c3cccc(C)c3)CC2)=Nc2ccccc2C1CC(=O)O (stereo not shown) [Example 27, {2-[4-(3-Methylphenyl)-1-piperazinyl]-3-[2-methoxy-5-(trifluoromethyl)phenyl]-3,4-dihydro-4-quinazolinyl}acetic acid] | 188 µM | 0.13 µM | 
10 | COc1ccc(C(F)(F)F)cc1N1C(N2CCN(c3cccc(Cl)c3)CC2)=Nc2ccccc2C1CC(=O)O (stereo not shown) [Example 26, {2-[4-(3-Chlorophenyl)-1-piperazinyl]-3-[2-methoxy-5-(trifluoromethyl)phenyl]-3,4-dihydro-4-quinazolinyl)acetic acid] | 31 µM | 0.019 µM | 
11 | Cc1cc(N2CCN(C3=Nc4ccccc4C(CC(=O)O)N3c3cccc(C(F)(F)F)c3)CC2)ccc1F (stereo not shown) [Example 1, {2-[4-(4-Fluoro-3-methylphenyl)-1-piperazinyl]-3-[3-(trifluoromethyl)phenyl]-3,4-dihydro-4-quinazolinyl}acetic acid] | 17 µM | 0.027 µM | 
